Experimental findings from US8268862B2, “Sirtuin modulating compounds” (Sirtris Pharmaceuticals, Inc., priority 2007, dated 2012) are described below.

The target in the assay is T1, SIRT1 (Homo sapiens, UniProt Q96EB6).
T1 sequence (Q96EB6 1-747): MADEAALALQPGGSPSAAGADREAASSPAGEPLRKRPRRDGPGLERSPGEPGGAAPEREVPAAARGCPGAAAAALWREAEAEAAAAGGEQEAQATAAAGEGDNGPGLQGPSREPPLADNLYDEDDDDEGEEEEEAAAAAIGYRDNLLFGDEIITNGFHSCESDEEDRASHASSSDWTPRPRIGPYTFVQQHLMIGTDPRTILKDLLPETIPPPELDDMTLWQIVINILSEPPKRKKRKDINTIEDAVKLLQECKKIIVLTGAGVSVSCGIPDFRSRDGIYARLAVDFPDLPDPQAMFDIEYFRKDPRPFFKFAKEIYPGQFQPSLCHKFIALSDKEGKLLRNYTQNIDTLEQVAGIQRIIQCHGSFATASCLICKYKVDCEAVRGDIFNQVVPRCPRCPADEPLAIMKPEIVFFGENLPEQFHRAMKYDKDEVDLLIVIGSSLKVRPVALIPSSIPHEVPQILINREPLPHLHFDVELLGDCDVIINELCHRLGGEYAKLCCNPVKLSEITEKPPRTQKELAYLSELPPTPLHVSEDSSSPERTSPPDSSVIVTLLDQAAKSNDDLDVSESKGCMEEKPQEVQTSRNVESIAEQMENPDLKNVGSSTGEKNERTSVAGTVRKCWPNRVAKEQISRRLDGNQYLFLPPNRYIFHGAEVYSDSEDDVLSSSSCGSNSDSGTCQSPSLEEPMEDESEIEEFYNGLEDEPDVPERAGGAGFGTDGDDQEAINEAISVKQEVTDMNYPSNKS
Nature of the assay: mass spectrometry based SIRT1 deacetylation assay (activation). Format: biochemical. The following applies: 0.5 μM peptide substrate, 120 μM βNAD+, 10 nM SIRT1, 25 min at 25° C.; for Emax: read-out: % FOLD ACT. (percent maximum fold activation of SIRT1); for EC1.5 (concentration of test compound that results in 150% activation of SIRT1): NA = not active in the assay. An excerpt: A mass spectrometry based assay was used to identify modulators of SIRT1 activity. The mass spectrometry based assay utilizes a peptide having 20 amino acid residues as follows: Ac-EE-K(biotin)-GQSTSSHSK(Ac)NleSTEG-K(5TMR)-EE-NH2 (SEQ ID NO: 1) wherein K(Ac) is an acetylated lysine residue and Nle is a norleucine. The peptide is labeled with the fluorophore 5TMR (excitation 540 nm/emission 580 nm) at the C-terminus. The sequence of the peptide substrate is based on p53 with several modifications. In addition, the methionine residue naturally present in the sequence was replaced with the norleucine because the methionine may be susceptible to oxidation during synthesis and purification.
Test compounds may be added to the reaction as described above. […] After the 25 minute incubation with SIRT1, 10 μL of 10% formic acid is added to stop the reaction. Reactions are sealed and frozen for later mass spec analysis. Determination of the mass of the substrate peptide allows for precise determination of the degree of acetylation (i.e. starting material) as compared to deacetylated peptide (product).
A control for inhibition of sirtuin activity is conducted by adding 1 μL of 500 mM nicotinamide as a negative control at the start of the reaction (e.g., permits determination of maximum sirtuin inhibition). A control for activation of sirtuin activity is conducted using 10 nM of sirtuin protein, with 1 μL of DMSO in place of compound, to determine the amount of deacetylation of the substrate at a given timepoint within the linear range of the assay. This timepoint is the same as that used for test compounds and, within the linear range, the endpoint represents a change in velocity.
For the above assay, SIRT1 protein was expressed and purified as follows. […] The protein was expressed by induction with 1 mM IPTG as an N-terminal His-tag fusion protein at 18° C. overnight and harvested at 30,000×g. Cells were lysed with lysozyme in lysis buffer (50 mM Tris-HCl, 2 mM Tris[2-carboxyethyl]phosphine (TCEP), 10 μM ZnCl2, 200 mM NaCl) and further treated with sonication for 10 min for complete lysis. The protein was purified over a Ni-NTA column (Amersham) and fractions containing pure protein were pooled, concentrated and run over a sizing column (Sephadex S200 26/60 global). The peak containing soluble protein was collected and run on an Ion-exchange column (MonoQ). Gradient elution (200 mM-500 mM NaCl) yielded pure protein. This protein was concentrated and dialyzed against dialysis buffer (20 mM Tris-HCl, 2 mM TCEP) overnight. The protein was aliquoted and frozen at −80° C. until further use.
Sirtuin modulating compounds that activated SIRT1 were identified using the assay described above and are shown below in Table 3. The EC1.5 values represent the concentration of test compounds that result in 150% activation of SIRT1. NT means that the compound was not tested using the indicated assay. NA means that the compound was not active in the indicated assay.

Molecules are shown by their SMILES.

For `O=C(Nc1ccccc1-c1nc2ccc(CN3CCNCC3)nc2s1)c1cnc2ccccc2n1` [Compound 66], the Emax came out at 336%.

In the case of `O=C(Nc1ccccc1-c1nc2cc(CN3CCOCC3)cnc2s1)c1ccc2ccccc2n1` [Compound 68], the “EC1.5 (concentration of test compound that results in 150% activation of SIRT1)” value was 593 NM and the Emax worked out at 295%.

`O=C(Nc1ccccc1-c1nc2ccc(CN3CCNCC3)nc2s1)c1ccc2ccccc2n1` [Compound 69]: the “EC1.5 (concentration of test compound that results in 150% activation of SIRT1)” value was found to be 687 NM and the Emax is above 500%.

Turning to `O=C(Nc1ccccc1-c1nc2cc(CN3CCNCC3)cnc2s1)c1ccc2ncsc2c1` [Compound 70], the Emax was 298%.

On to `O=C(Nc1ccccc1-c1nc2cc(CN3CCNCC3)cnc2s1)c1ccn(-c2ccccc2)n1` [Compound 71], for which the “EC1.5 (concentration of test compound that results in 150% activation of SIRT1)” value is given as 1460 NM and the Emax was determined as 304%.

Consider `O=C(Nc1ccccc1-c1nc2cc(CN3CCOCC3)cnc2s1)c1ccnc(-c2ccccc2)n1` [Compound 72], for which the Emax was 100%.

Turning to `O=C(Nc1ccccc1-c1nc2cc(CN3CCNCC3)cnc2s1)c1ccnc(-c2ccccc2)n1` [Compound 73], the “EC1.5 (concentration of test compound that results in 150% activation of SIRT1)” value is listed as 2970 NM and the Emax turned out to be 183%.

Consider `COc1ccc(-c2ccc(C(=O)Nc3ccccc3-c3nc4cc(CN5CCOCC5)cnc4s3)o2)cc1` [Compound 74], for which the “EC1.5 (concentration of test compound that results in 150% activation of SIRT1)” value was 421 NM and the Emax is 236%.

Take `O=C(Nc1ccccc1-c1nc2cc(CN3CCNCC3)cnc2s1)c1cccc(-c2nnn[nH]2)c1` [Compound 76]: the “EC1.5 (concentration of test compound that results in 150% activation of SIRT1)” value was 2790 NM and the Emax came to 285%.

Turning to `O=C(Nc1ccccc1-c1nc2cc(CN3CCOCC3)cnc2s1)c1cccc(-c2nnn[nH]2)c1` [Compound 77], the “EC1.5 (concentration of test compound that results in 150% activation of SIRT1)” value is on record as 3920 NM and the Emax came to 204%.

On to `Cc1nc(-c2cccnc2)sc1C(=O)Nc1ccccc1-c1nc2cc(CN3CCC(N)CC3)cnc2s1` [Compound 78], for which the “EC1.5 (concentration of test compound that results in 150% activation of SIRT1)” value was determined as 565 NM and the Emax was determined as 297%.

`Cc1nc(-c2cccnc2)sc1C(=O)Nc1ccccc1-c1nc2cc(CN3CC[C@@H](N)C3)cnc2s1` [Compound 79]: the “EC1.5 (concentration of test compound that results in 150% activation of SIRT1)” value amounted to 1220 NM and the Emax came out at 240%.

Take `Cc1nc(-c2cccnc2)sc1C(=O)Nc1ccccc1-c1nc2cc(CN3CCOCC3)cnc2s1` [Compound 80]: the Emax is 100%.

On to `Cc1nc(-c2cccnc2)sc1C(=O)Nc1ccccc1-c1nc2cc(CN3C[C@@H](C)N[C@@H](C)C3)cnc2s1` [Compound 81], for which the Emax turned out to be 131%.

Turning to `Cc1nc(-c2cccnc2)sc1C(=O)Nc1ccccc1-c1nc2cc(CN[C@H]3CCNC3)cnc2s1` [Compound 82], the “EC1.5 (concentration of test compound that results in 150% activation of SIRT1)” value is recorded as 878 NM and the Emax came out at 224%.

Regarding `Cc1nc(-c2cccnc2)sc1C(=O)Nc1ccccc1-c1nc2cc(CNC(C)C)cnc2s1` [Compound 83], the Emax came out at 100%.

For `O=C(Nc1ccccc1-c1nc2cc(CN3CC[C@@H](F)C3)cnc2s1)c1cccc(-n2cnnn2)c1` [Compound 84], the “EC1.5 (concentration of test compound that results in 150% activation of SIRT1)” value is listed as 4270 NM and the Emax came to 166%.

With `COCCN1CCN(Cc2cnc3sc(-c4ccccc4NC(=O)c4sc(-c5cccnc5)nc4C)nc3c2)CC1` [Compound 85], the “EC1.5 (concentration of test compound that results in 150% activation of SIRT1)” value is 16700 NM and the Emax was 182%.

With `COCCN1CCN(Cc2cnc3sc(-c4ccccc4NC(=O)c4cc(-c5ccccc5)ccn4)nc3c2)CC1` [Compound 86], the Emax amounted to 137%.

For the compound `COCCN1CCN(Cc2cnc3sc(-c4ccccc4NC(=O)c4cc(-c5ccccc5)ncn4)nc3c2)CC1` [Compound 87], the “EC1.5 (concentration of test compound that results in 150% activation of SIRT1)” value is recorded as 955 NM and the Emax is 166%.

Take `COCCN1CCN(Cc2cnc3sc(-c4ccccc4NC(=O)c4cc(-c5ccccc5)cn4C)nc3c2)CC1` [Compound 88]: the “EC1.5 (concentration of test compound that results in 150% activation of SIRT1)” value is 14 NM and the Emax was found to be 272%.

As to `Cc1c(C(=O)Nc2ccccc2-c2nc3cc(CN4CCNCC4)cnc3s2)oc2ccccc12` [Compound 89], the “EC1.5 (concentration of test compound that results in 150% activation of SIRT1)” value is 235 NM and the Emax is 239%.

As for `CN1CCN(Cc2cnc3sc(-c4ccccc4NC(=O)c4ccc5ccccc5n4)nc3c2)CC1` [Compound 90], the “EC1.5 (concentration of test compound that results in 150% activation of SIRT1)” value is on record as 190 NM and the Emax amounted to 221%.

On to `O=C(Nc1ccccc1-c1nc2cc(CN3CCNCC3)cnc2s1)c1nc2ccccc2s1` [Compound 91], for which the “EC1.5 (concentration of test compound that results in 150% activation of SIRT1)” value is reported as 4410 NM and the Emax stood at 333%.

For the compound `CN(C)Cc1cnc2sc(-c3ccccc3NC(=O)c3cnc4ccccc4n3)nc2c1` [Compound 92], the “EC1.5 (concentration of test compound that results in 150% activation of SIRT1)” value was 2810 NM and the Emax was determined as 163%.

Turning to `O=C(Nc1ccccc1-c1nc2cc(CN3CCOCC3)cnc2s1)c1nc2ccccc2s1` [Compound 93], the “EC1.5 (concentration of test compound that results in 150% activation of SIRT1)” value was determined as 510 NM and the Emax was 236%.

Take `O=C(Nc1ccccc1-c1nc2cc(Cn3ccnc3)cnc2s1)c1ccc2ccccc2n1` [Compound 94]: the “EC1.5 (concentration of test compound that results in 150% activation of SIRT1)” value is 150 NM and the Emax is 182%.

In the case of `O=C(Nc1ccccc1-c1nc2cc(CN3CCCC3)cnc2s1)c1ccc2ccccc2n1` [Compound 95], the “EC1.5 (concentration of test compound that results in 150% activation of SIRT1)” value was determined as 160 NM and the Emax stood at 252%.

In the case of `O=C(Nc1ccccc1-c1nc2cc(CN3CCOCC3)cnc2s1)c1ccc2ccccc2c1` [Compound 96], the “EC1.5 (concentration of test compound that results in 150% activation of SIRT1)” value was determined as 1060 NM and the Emax was found to be 162%.

`O=C(Nc1ccccc1-c1nc2cc(CN3CCOCC3)cnc2s1)c1cccc2ccccc12` [Compound 97]: the “EC1.5 (concentration of test compound that results in 150% activation of SIRT1)” value worked out at 3020 NM and the Emax came out at 186%.

As for `O=C(Nc1ccccc1-c1nc2cc(CN3CCOCC3)cnc2s1)c1nc2ccccc2o1` [Compound 98], the Emax is 139%.

For `O=C(Nc1ccccc1-c1nc2cc(CN3CCC(O)CC3)cnc2s1)c1ccc2ccccc2n1` [Compound 99], the “EC1.5 (concentration of test compound that results in 150% activation of SIRT1)” value turned out to be 110 NM and the Emax was determined as 244%.

Turning to `O=C(Nc1ccccc1-c1nc2cc(CN3CC[C@H](F)C3)cnc2s1)c1ccc2ccccc2n1` [Compound 100], the “EC1.5 (concentration of test compound that results in 150% activation of SIRT1)” value was determined as 1440 NM and the Emax was 201%.

With `O=C(Nc1ccccc1-c1nc2cc(CN3CCC(F)(F)C3)cnc2s1)c1ccc2ccccc2n1` [Compound 101], the Emax was 133%.

With `O=C(Nc1ccccc1-c1nc2cc(CN3CCC(F)(F)CC3)cnc2s1)c1ccc2ccccc2n1` [Compound 102], the Emax was found to be 131%.
